Tests used:
[1] = tested on: spontaneously hypertensive rat, stroke prone strain (SHRSP); conditions: previously reported (Zhang 2011); cited from earlier work
subjects with diabetes = assay: Example 1/2: multicenter double-blind placebo-controlled 96 week trial, seated office blood pressure and blood-pressure TEAEs; assay type: in vivo, human
Method: In a multicenter double-blind placebo-controlled trial, subjects with diabetes were administered Compound 1, 20 mg per day or placebo for 96 weeks. The blood pressure of resting seated subjects was measured at every office visit. Although the study population was not specifically recruited to contain participants with hypertension, a fraction of the population was affected by the disease and the mean baseline systolic blood pressure of the entire study population was 127 mm Hg. The effects of Compound 1 and placebo on systolic and diastolic blood pressure as a function of time are shown in FIG. 5 (systolic) and FIG. 6 (diastolic).
A treatment emergent adverse event (TEAE) is an adverse event that develops during or immediately following the period of exposure to the investigational product in a clinical trial. An adverse event is any event that represents an unfavorable change in the health of the individual that is clinically significant—it may represent a new condition or status or materially worsened pre-existing condition. In the clinical trial of Example 1, hypertension was recorded as a TEAE in 2 subjects that had been administered Compound 1 and in 5 subjects administered placebo. […] One episode of hypotension was observed among subjects administered Compound 1 and none among subjects administered placebo. The lower incidence of hypertensive TEAEs and the single episode of hypotension are consistent with the antihypertensive effect of Compound 1. In addition, the observation of only a single episode of hypotension is notable because the mean systolic blood pressure at baseline was only 127 mm Hg, well below the 140 mm Hg level that demarks a widely adopted standard for the diagnosis of hypertension.

[2] = tested on: subjects with seated office systolic blood pressure of ≥140 mm Hg and <180 mm Hg; assay: Study THR-1442-C-603A: double-blind placebo-controlled 12 week trial in a hypertensive population not pre-selected for diabetes; assay type: in vivo, human
Method: A qualified ABPM record contained no fewer than 64 measurements over an approximately 24 h period and a mean SBP≥135 mm Hg.
A total of 678 subjects were randomly assigned to the active arm or to the placebo arm.
The study was conducted in the United States at multiple clinical sites. The randomized population consisted of 409 male and 269 female participants with a mean age ±standard deviation of 58.5±11.74. […] 64.7% were self-declared Caucasian, 29.9% African-American, 1.6% Asian, 0.3% Native American/Native Alaskan, 0.1% Native Hawaiian/Other Pacific Islander, 1.0% Multiracial and 2.2% Other. 8.1% self-declared Hispanic or Latino ethnicity. The study population was obese, having a median body mass index (kg m^−2) of 31.9 and a mean weight of 98.3±35.0 kg. A history of diagnosed diabetes was elicited from 24.3% of the subjects and 18.0% were presently unmedicated for hypertension.
The baseline 24 h average SBP from ABPM was 147.3±9.93 and the DBP was 84.5±9.65. 11.7% of the subjects produced a baseline ABPM SBP≥160 mm Hg.
Following self-administration of investigational product for 12 weeks, subjects underwent ABPM to assess the potential treatment effect. After the first 300 subjects had completed 12 weeks of participation, the mean SBP was 140.90, corresponding to a decrease from baseline in the entire population of 6.4 mm Hg.
A total of 678 subjects were randomized, of whom 5 were excluded for major protocol violations. Of the remaining 673 participants, 307 out of 334 in the bexagliflozin arm and 319 out of 339 in the placebo arm completed the study. The arms were well-balanced in general by demographic characteristics. The population was predominantly male (60.5%) and Caucasian (65.2%) with the remainder by race predominantly of African heritage (29.4%). Participants of Latino ethnicity comprised 8.0% of the total. The mean age was 58.9 years and 24.8% were diabetic. The mean subject was obese with a BMI of 32.6 kg/m^2, and 81% reported at least one prescription for anti-hypertensive medication. ACE inhibitors and ARBs were the most commonly encountered agents. Calcium channel blockers, diuretics and β-blockers were the next most commonly encountered, in that order. The mean seated office blood pressure was 156/91 with a heart rate of 73. The mean ABPM at baseline was 147.5/85.0. Nearly all participants had preserved renal function.

[3] = subjects with systolic blood pressure of 140 mm Hg or above at study entry, 20 mg per day, persisted for duration of trial

SMILES: OC[C@H]1O[C@@H](c2ccc(Cl)c(Cc3ccc(OCCOC4CC4)cc3)c2)[C@H](O)[C@@H](O)[C@@H]1O [Compound 1, (2S,3R,4R,5S,6R)-2-(4-chloro-3-(4-(2-cyclopropoxyethoxy)benzyl)phenyl)-6-(hydroxymethyl)tetrahydro-2H-pyran-3,4,5-triol]
- effect in SHRSP rat [1]: protective effects
- episodes of hypotension (subjects with diabetes; 20 mg per day, 96 weeks): One
- hypertension recorded as a TEAE (subjects with diabetes; 20 mg per day, 96 weeks): 2 subjects
- hypertensive crisis (subjects with diabetes; 20 mg per day, 96 weeks): 0 subjects
- propensity for producing deleterious reductions in blood pressure (subjects with diabetes; mean systolic blood pressure at baseline 127 mm Hg): favorably low propensity
- reduction in diastolic blood pressure (subjects with diabetes; [3]): approximately 7 mm Hg
- reduction in systolic blood pressure (subjects with diabetes; [3]): approximately 12 mm Hg
- proportion of subjects achieving a seated office DBP≤90 mm Hg ([2]; 20 mg tablets, 12 weeks): 0.65
- proportion of subjects achieving a seated office SBP≤140 mm Hg ([2]; 20 mg tablets, 12 weeks): 0.38
- placebo-adjusted change in seated office SBP from baseline ([2]; 20 mg tablets, 12 weeks, 95% confidence interval −6.83, −2.42, p<0.0001): −4.63 mm Hg
- placebo-adjusted change in seated office DBP from baseline ([2]; 20 mg tablets, week 12, 95% CI −3.70, −0.91, p=0.0011): −2.31 mm Hg
- anti-hypertensive effect over the 24 h ABPM data collection period (hourly change in blood pressure) ([2]; ABPM): did not show significant waning
- placebo-adjusted reduction in ambulatory mean SBP from baseline to week 12 ([2]; ABPM, p=0.0025): 2.72 mm Hg
- adverse events by percentage among participants ([2]; active arm, 12 weeks): 41.9%
- adverse events leading to subject withdrawal or treatment discontinuation ([2]; active arm, 12 weeks): 1.8%
- serious adverse events ([2]; active versus placebo arm): balanced between the arms
- treatment effect by ABPM SBP measurement ([2]; subgroup: concomitant diuretic use, p=0.0021): −5.60 mm Hg
- treatment effect by ABPM SBP measurement ([2]; subgroup: concomitant β-blocker use, p=0.0012): −6.26 mm Hg
- treatment effect by ABPM SBP measurement ([2]; subgroup: history of diabetes, p=0.0023): −6.07 mm Hg
- treatment effect by ABPM SBP measurement ([2]; subgroup: participants with stage 3 CKD, p=0.0571): −7.53 mm Hg
- treatment effect by ABPM SBP measurement ([2]; subgroup: use of 3 or more anti-hypertensive medications, p=0.0071): −5.55 mm Hg
- odds ratio for achieving seated office DBP≤90 mm Hg ([2]; versus placebo arm, 95% CI 1.13, 2.35, p=0.0094): 1.63
- odds ratio for achieving seated office SBP≤140 mm Hg ([2]; versus placebo arm, 95% CI 1.32, 2.62, p=0.0004): 1.86
